The source of these data is patent US8058243B2, “Method for treating a brain cancer with ifenprodil” (HSC Research and Development Limited Partnership, priority 2006, dated 2011).

Counter-ions that a name gives are not always drawn. Like-named read-outs stand apart in the source and are kept apart here.

The assay deals with murine neural precursor cells (neurosphere cultures). The assay can be described thus: HTS of LOPAC library against secondary neurosphere cultures, MTT proliferation assay at 3 μM, day 7 (z score, P value). It counts as cell-based, mouse.
Where [1] appears, read: LOPAC library screen, 3 μM, MTT, secondary neurosphere cultures, day 7.
The mark [2] stands for this setting: LOPAC primary screen, neurosphere MTT proliferation, 3 μM, day 7.
Where [3] appears, read: yes/no: significantly inhibited neurosphere proliferation (P<0.01) in primary screen.
Where [4] appears, read: LOPAC library screen at 3 μM, secondary neurosphere cultures, MTT.
The mark [5] stands for this setting: primary LOPAC screen, 3 μM, MTT, neurosphere proliferation.
Setting [6] is: yes/no: significantly inhibited neurosphere proliferation in the primary screen.
The mark [7] stands for this setting: yes/no: significantly inhibited neurosphere proliferation in primary screen.
[8] abbreviates: yes/no: significantly inhibited neurosphere proliferation (P<0.01) in the primary screen.
[9] abbreviates: LOPAC screen, neurosphere MTT proliferation, 3 μM, day 7.
The mark [10] stands for this setting: yes = significantly inhibited neurosphere proliferation (P<0.01) in the primary screen.
[11] abbreviates: LOPAC library screen, 3 μM, MTT, neurosphere cultures.

With `NCC(=O)NCCC(c1ccccc1)c1ccccc1` [N-(3,3-Diphenylpropyl)glycinamide], the “Z Score” value under setting [1] is −1.243. Under setting [2], the Z score was −1.243. In addition, the Activity entry under setting [3] is “no”.
In the case of `Nc1ccc(N2C(=O)c3ccccc3C2=O)c(Cl)c1` [N-(4-Amino-2-chlorophenyl)phthalimide], under setting [4], the “Z Score” value was −0.6021. This compound came in with a Z score under setting [5] of −0.602. The Activity entry under setting [6] is given as “no”.
Turning to `Cl.NCCCCNS(=O)(=O)c1ccc2c(Cl)cccc2c1` [N-(4-Aminobutyl)-5-chloro-2-naphthalenesulfonamide hydrochloride], the “Z Score” value (168 h, 3 µM) is given as −0.9229.
As to `NCCCCNS(=O)(=O)c1ccc2c(Cl)cccc2c1` [N-(4-Aminobutyl)-5-chloro-2-naphthalenesulfonamide], the Z score (168 h, 3 µM) is reported as −0.923. In addition, the Activity entry under setting [7] is reported as “no”.
With `CC(=O)NCCc1c[nH]c2ccc(O)cc12` [N-Acetyl-5-hydroxytryptamine], the “Z Score” value under setting [4] is listed as −1.06. Also, the Z score under setting [5] is recorded as −1.060. Moreover, under setting [6], the Activity result is “no”.
Consider `CC(=O)N[C@@H](CS)C(=O)O` [N-Acetyl-L-Cysteine], for which the “Z Score” value under setting [1] is on record as −1.621. Also, the Z score under setting [5] was −1.621. Further, under setting [6], the Activity result is “no”.
In the case of `CC(=O)NCCc1ccc(O)c(O)c1.O` [N-Acetyldopamine monohydrate], the “Z Score” value is given as 0.4667. This compound displayed a Z score under setting [5] of 0.467. The Activity result under setting [6] was “no”.
Take `CCN(CC)CCNC(=O)c1ccc(NC(C)=O)cc1.Cl` [N-Acetylprocainamide hydrochloride]: the “Z Score” value was −4.557. Under setting [2], this compound displayed a Z score of −4.557. Moreover, the Activity entry under setting [8] is on record as “yes”.
For the compound `CC(=O)NCCc1c[nH]c2ccccc12` [N-Acetyltryptamine], the “Z Score” value turned out to be 1.02. This compound had a Z score under setting [5] of 1.020. For the same compound, the Activity result under setting [6] is reported as “no”.
Turning to `CC(=O)NBr` [N-Bromoacetamide], the “Z Score” value under setting [1] is recorded as −1.362. Moreover, the Z score under setting [9] is recorded as −1.362. Besides, under setting [3], the Activity result is given as “no”.
Turning to `CCN1C(=O)C=CC1=O` [N-Ethylmaleimide], the “Z Score” value was −0.02816. The compound further showed a Z score under setting [2] of −0.028. The Activity entry under setting [3] is on record as “no”.
Regarding `CN1C[C@H](O)[C@@H](O)[C@H](O)[C@H]1CO` [N-Methyl-1-deoxynojirimycin], the “Z Score” value is given as −1.335. Under setting [2], the Z score is given as −1.335. For the same compound, the Activity result under setting [10] is recorded as “no”.
For `CN[C@H](CC(=O)O)C(=O)O` [N-Methyl-D-aspartic acid], the “Z Score” value is −1.86. Also, under setting [2], the Z score is listed as −1.860. Besides, under setting [10], the Activity result was “no”.
As for `CNC(=O)c1cc2c(cn1)[nH]c1ccccc12` [N-Methyl-beta-carboline-3-carboxamide], for the setting “168 h, 3 µM”, the “Z Score” value came out at 0.6988 and the Z score was 0.699. The Activity result under setting [3] is on record as “no”.
As for `CNCCc1ccc(O)c(O)c1.Cl` [N-Methyldopamine hydrochloride], the “Z Score” value under setting [1] is −1.219. Under setting [9], this compound came in with a Z score of −1.219. For the same compound, the Activity result under setting [3] is “no”.
For `CCCCCCCC/C=C\CCCCCCCC(=O)NCCc1ccc(O)c(O)c1` [N-Oleoyldopamine], where the note is “168 h, 3 µM”, the “Z Score” value worked out at 0.4633 and the Z score is listed as 0.463. In addition, the Activity result under setting [7] is “no”.
For `CCCCCCCC/C=C\CCCCCCCC(=O)NCCO` [N-Oleoylethanolamine], in that order: −0.4116, −0.412 and “no”.
As for `O=C(O)c1ccccc1Nc1ccccc1` [N-Phenylanthranilic acid], under setting [1], the “Z Score” value is listed as −1.61. The Z score under setting [2] is listed as −1.610. For the same compound, the Activity result under setting [7] is recorded as “no”.
For the compound `O=C(O)CCC(=O)N1CCC[C@H]1C(=O)O` [N-Succinyl-L-proline], under setting [11], the “Z Score” value is 0.7246. The Z score under setting [2] is 0.725. The Activity result under setting [7] is recorded as “no”.
Turning to `CCCCCCCCC(=O)NCc1ccc(O)c(OC)c1` [N-Vanillylnonanamide], under setting [1], the “Z Score” value is −9.029. The compound also returned a Z score under setting [2] of −9.029. The Activity result under setting [8] is on record as “yes”.
For `NC(=O)C1=CN([C@@H]2O[C@H](COP(=O)([O-])OP(=O)([O-])OC[C@H]3O[C@@H](n4cnc5c(N)ncnc54)[C@H](OP(=O)([O-])[O-])[C@@H]3O)[C@@H](O)[C@H]2O)C=CC1.[Na+].[Na+].[Na+].[Na+]` [NADPH tetrasodium], the “Z Score” value under setting [11] came out at 0.3021. The compound also gave a Z score under setting [2] of 0.302. Moreover, the Activity result under setting [10] is given as “no”.
Regarding `COc1ccccc1N1CCN(CCCCN2C(=O)c3ccccc3C2=O)CC1` [NAN-190 hydrobromide], the “Z Score” value under setting [4] is −0.6186. The compound further registered a Z score under setting [2] of −0.619. Moreover, the Activity entry under setting [10] is “no”.
Regarding `CCCN(CC1CC1)c1nc(C)nc(Nc2c(Cl)cc(Cl)cc2Cl)c1Cl` [NBI 27914], the “Z Score” value is listed as 0.1345. Moreover, the Z score under setting [2] is listed as 0.134. Further, the Activity entry under setting [3] is recorded as “no”.
For the compound `NS(=O)(=O)c1cccc2c1c([N+](=O)[O-])cc1nc([O-])c([O-])nc12.[Na+].[Na+]` [NBQX disodium], the “Z Score” value under setting [1] is reported as −1.675. In addition, under setting [2], the Z score is listed as −1.675. The Activity entry under setting [7] is reported as “no”.
As to `O=C(O)/C=C1\CCCc2ccccc2C1O` (stereo not drawn) [NCS-382], the “Z Score” value is reported as −1.733. Under setting [2], this compound registered a Z score of −1.733. Also, the Activity entry under setting [10] is “no”.
As for `O=C(Nc1cc(C(=O)Nc2ccc(S(=O)(=O)[O-])cc2S(=O)(=O)[O-])cc(C(=O)Nc2ccc(S(=O)(=O)[O-])cc2S(=O)(=O)[O-])c1)Nc1cc(C(=O)Nc2ccc(S(=O)(=O)[O-])cc2S(=O)(=O)[O-])cc(C(=O)Nc2ccc(S(=O)(=O)[O-])cc2S(=O)(=O)[O-])c1.[Na+].[Na+].[Na+].[Na+].[Na+].[Na+].[Na+].[Na+]` [NF449 octasodium salt], the “Z Score” value was determined as 1.851. Under setting [2], this compound registered a Z score of 1.851. In addition, under setting [10], the Activity result is given as “no”.
Take `O=C(Nc1cccc(C(=O)Nc2ccc(S(=O)(=O)[O-])c3cc(S(=O)(=O)[O-])cc(S(=O)(=O)[O-])c23)c1)Nc1cccc(C(=O)Nc2ccc(S(=O)(=O)[O-])c3cc(S(=O)(=O)[O-])cc(S(=O)(=O)[O-])c23)c1.[Na+].[Na+].[Na+].[Na+].[Na+].[Na+]` [NF 023]: the “Z Score” value amounted to 1.115. Further, the Z score under setting [2] stood at 1.115. Moreover, under setting [10], the Activity result was “no”.
Turning to `CC(=O)O.NC(=NCCC[C@H](N)C(=O)O)NO` [NG-Hydroxy-L-arginine acetate], under setting [1], the “Z Score” value is on record as −10.96. Further, under setting [2], the Z score is recorded as −10.958. Moreover, the Activity entry under setting [8] was “yes”.
`CC(=O)O.CNC(=N)NCCC[C@H](N)C(=O)O` [NG-Monomethyl-L-arginine acetate]: the “Z Score” value under setting [1] is −1.386. Further, the Z score under setting [2] was −1.386. Besides, under setting [10], the Activity result is recorded as “no”.
As to `N=C(NCCC[C@H](N)C(=O)O)N[N+](=O)[O-]` [NG-Nitro-L-arginine], the “Z Score” value under setting [11] came out at 0.1385. Besides, under setting [2], the Z score came out at 0.139. Further, the Activity entry under setting [10] is given as “no”.
With `Cl.O=C(O)C1=CCCN(CCON=C(c2ccccc2)c2ccccc2)C1` [NO-711 hydrochloride], the “Z Score” value is −0.4618. Also, the Z score under setting [2] is −0.462. Also, the Activity result under setting [10] is recorded as “no”.
